Publication PMC12302228 (RSC Medicinal Chemistry, 2025)
Values after ≈ are worked out from the molar mass of the structure shown. Like-named read-outs stand apart in the source and are kept apart here.

How the values were obtained:
[1] = system: MCF7; assay: Antiproliferative activity, SRB assay; type: cell-based, human; details: mean ± SEM
[2] = Metabolic stability in liver microsomes; type: in vitro ADME; details: rat, pH 7.4
[3] = system: histone H2AX; assay: H2AX phosphorylation, immunofluorescence in M21 cells; type: cell-based, human; details: 24 h at 2-fold IC50
[4] = physchem; details: ultrapure water, 37 °C, kinetic from dmso stock
[5] = system: MOLM-13 cells; assay: Differentiation of AML cells, CD11b/CD14 flow cytometry; type: cell-based, human; details: 120 h at 2-fold IC50
[6] = system: HL-60; assay: Antiproliferative activity, MTT assay; type: cell-based, human; details: mean ± SEM
[7] = system: HT-29; assay: Antiproliferative activity, SRB assay; type: cell-based, human; details: mean ± SEM
[8] = system: THP-1; assay: Antiproliferative activity, MTT assay; type: cell-based, human; details: mean ± SEM
[9] = Metabolic stability in liver microsomes; type: in vitro ADME, mouse
[10] = system: M21; assay: Antiproliferative activity, SRB assay; type: cell-based, human; details: mean ± SEM
[11] = target: human DHODH (Homo sapiens, UniProt Q02127); assay: Human DHODH colorimetric; type: biochemical
[12] = Metabolic stability in liver microsomes; type: in vitro ADME; details: human, pH 7.4
[13] = system: MOLM-13; assay: Antiproliferative activity, MTT assay; type: cell-based, human; details: read-out: IC50 MOLM-13; 48 h of treatment; mean ± SEM
[14] = system: HT-1080; assay: Antiproliferative activity, SRB assay; type: cell-based, human; details: read-out: IC50 HT-1080; 48 h of treatment; mean ± SEM
[15] = Homo sapiens, MCF7, 48 h, read-out: IC50 MCF7, 48 h of treatment
[16] = Homo sapiens, HT-29, 48 h, read-out: IC50 HT-29, 48 h of treatment
[17] = read-out: IC50 THP-1, 48 h of treatment
[18] = mouse, liver microsomes, pH 7.4
[19] = Homo sapiens, M21, 48 h, read-out: IC50 M21, 48 h of treatment
[20] = Homo sapiens, THP-1, 48 h, read-out: IC50 THP-1, 48 h of treatment
[21] = read-out: IC50 MCF7, 48 h of treatment
[22] = read-out: IC50 HL-60, 48 h of treatment
[23] = read-out: IC50 HT-29, 48 h of treatment
[24] = read-out: IC50 M21, 48 h of treatment

Chain of human DHODH (Q02127 whole entry): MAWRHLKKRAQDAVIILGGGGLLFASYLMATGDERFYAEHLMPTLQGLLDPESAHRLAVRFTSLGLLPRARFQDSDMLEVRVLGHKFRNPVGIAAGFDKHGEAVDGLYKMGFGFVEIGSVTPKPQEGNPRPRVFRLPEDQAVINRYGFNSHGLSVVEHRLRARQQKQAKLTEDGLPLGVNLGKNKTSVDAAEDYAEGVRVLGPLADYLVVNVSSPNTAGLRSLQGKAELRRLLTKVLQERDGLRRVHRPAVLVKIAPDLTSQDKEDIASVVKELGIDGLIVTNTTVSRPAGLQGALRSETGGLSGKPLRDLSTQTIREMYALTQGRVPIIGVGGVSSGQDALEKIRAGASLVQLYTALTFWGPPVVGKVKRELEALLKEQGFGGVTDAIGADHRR

Compound	solubility at 24 h [4] [µg/mL]	IC50 [8, 17] [µM]	IC50 [1, 21] [µM]	IC50 [6, 22] [µM]	IC50 [7, 23] [µM]	IC50 [13] [µM]	IC50 [10, 24] [µM]	IC50 [14] [µM]	further results
CCNC(=O)Nc1ccc(S(=O)(=O)Oc2cccnc2I)cc1.Cl [Compound 20, 2-Iodopyridin-3-yl 4-(3-ethylureido)benzenesulfonate hydrochloride]	190 ± 10	1.1 ± 0.5	–	–	–	–	–	–	IC50 [1, 15]: 12 ± 1 µM; half-life at 4 µM [2]: 3.17 ± 0.333 h; microsomal CLint at 4 µM [2]: 7.4 ± 0.6 µL/min/mg; Phosphorylation of H2AX into γH2AX (γH2AX foci) [3]: promote the phosphorylation of H2AX into γH2AX; CD11b expression, share of the cell population [5]: 38%; IC50 ([6]; Homo sapiens, HL-60, 48 h, read-out: IC50 HL-60, 48 h of treatment): 37 ± 6 µM; IC50 [7, 16]: 6.8 ± 0.6 µM; half-life at 4 µM [9, 18]: 1.33 ± 0.167 h; microsomal CLint at 4 µM [9, 18]: 18 ± 2 µL/min/mg; Clearance category MLM ([9]; ranked by CLint): medium (medium clearance category for MLM (13.1 < CLint < 71.1)); IC50 [10, 19]: 7.7 ± 0.7 µM; IC50 [11]: 0.031 µM; half-life at 4 µM [12]: 3.6 ± 0.167 h; microsomal CLint at 4 µM [12]: 6.5 ± 0.3 µL/min/mg
Cc1c(-c2ccc(-c3ccccc3F)cc2)nc2ccc(F)cc2c1C(=O)O [Brequinar, reference compound]	–	–	–	–	–	–	–	–	IC50 [1, 15]: 3.8 ± 0.9 µM; CD11b expression, share of the cell population [5]: 34%; IC50 [7, 16]: 0.69 ± 0.07 µM; IC50 [8, 20]: 0.17 ± 0.04 µM; IC50 [10, 19]: 0.46 ± 0.05 µM
CCCNC(=O)Nc1ccc(S(=O)(=O)Oc2cnccc2Br)cc1.Cl [Compound 33, 4-Bromopyridin-3-yl 4-(3-propylureido)benzenesulfonate hydrochloride]	124 ± 2	4.1 ± 0.7	24 ± 2	40 ± 10	30 ± 1	6 ± 1	40 ± 1	10 ± 0.8	–
CCCNC(=O)Nc1ccc(S(=O)(=O)Oc2cnccc2C)cc1 [Compound 17, 4-Methylpyridin-3-yl 4-(3-propylureido)benzenesulfonate]	52 ± 2 (≈ 149 µM)	–	12 ± 1	43 ± 7	12 ± 1	4 ± 0.6	24 ± 1	7.5 ± 0.5	IC50 [8, 20]: 7.3 ± 0.8 µM
CCCNC(=O)Nc1ccc(S(=O)(=O)Oc2cnccc2C)cc1.Cl [Compound 35, 4-Methylpyridin-3-yl 4-(3-propylureido)benzenesulfonate hydrochloride]	138 ± 2	5 ± 2	58 ± 8	16.3 ± 0.1	39 ± 2	9.2 ± 0.8	56 ± 3	21 ± 2	–
CCNC(=O)Nc1ccc(S(=O)(=O)Oc2cccnc2I)cc1 [Compound 2, 2-Iodopyridin-3-yl 4-(3-ethylureido)benzenesulfonate]	57 ± 3 (≈ 127 µM)	3.8 ± 0.6	11 ± 1	25 ± 4	10.6 ± 0.9	0.9 ± 0.3	13 ± 2	1.4 ± 0.1	Phosphorylation of H2AX into γH2AX (γH2AX foci) [3]: promote the phosphorylation of H2AX into γH2AX
CC(C)c1ncccc1OS(=O)(=O)c1ccc(NC(=O)NCCCl)cc1.Cl [Compound 29, 2-Isopropylpyridin-3-yl 4-(3-(2-chloroethyl)ureido)benzenesulfonate hydrochloride]	126 ± 5	2.6 ± 0.9	14 ± 1	13 ± 4	10.5 ± 0.5	2.5 ± 0.9	9.7 ± 0.5	3.3 ± 0.2	–
CCCNC(=O)Nc1ccc(S(=O)(=O)Oc2cccnc2C(C)C)cc1.Cl [Compound 25, 2-Isopropylpyridin-3-yl 4-(3-propylureido)benzenesulfonate hydrochloride]	26 ± 3	2.4 ± 0.9	16 ± 1	8 ± 3	15 ± 0.8	1.9 ± 0.5	20 ± 1	2.4 ± 0.2	–
CCCNC(=O)Nc1ccc(S(=O)(=O)Oc2cccnc2Br)cc1 [Compound 5, 2-Bromopyridin-3-yl 4-(3-propylureido)benzenesulfonate]	8 ± 1 (≈ 19.3 µM)	5.9 ± 0.5	13 ± 1	19 ± 2	17 ± 1	2.6 ± 0.1	24 ± 2	3.3 ± 0.2	–
CCCNC(=O)Nc1ccc(S(=O)(=O)Oc2cnccc2I)cc1.Cl [Compound 34, 4-Iodopyridin-3-yl 4-(3-propylureido)benzenesulfonate hydrochloride]	130 ± 10	2.1 ± 0.6	13 ± 1	> 50	14 ± 1	2.7 ± 0.5	21 ± 2	5.9 ± 0.5	–
CCNC(=O)Nc1ccc(S(=O)(=O)Oc2cnccc2I)cc1.Cl [Compound 31, 4-Iodopyridin-3-yl 4-(3-ethylureido)benzenesulfonate hydrochloride]	165 ± 3	2.2 ± 0.3	19 ± 3	32 ± 9	11 ± 1	1.4 ± 0.4	11 ± 1	5.3 ± 0.4	–
CCNC(=O)Nc1ccc(S(=O)(=O)Oc2cccnc2C(C)C)cc1 [Compound 3, 2-Isopropylpyridin-3-yl 4-(3-ethylureido)benzenesulfonate]	40 ± 3 (≈ 110 µM)	1.5 ± 0.3	19 ± 2	29 ± 6	8.4 ± 0.7	0.8 ± 0.2	7 ± 1	1.2 ± 0.2	Phosphorylation of H2AX into γH2AX (γH2AX foci) [3]: promote the phosphorylation of H2AX into γH2AX
CCNC(=O)Nc1ccc(S(=O)(=O)Oc2cccnc2C)cc1 [Compound 4, 2-Methylpyridin-3-yl 4-(3-ethylureido)benzenesulfonate]	55 ± 1 (≈ 164 µM)	4.4 ± 0.2	20 ± 3	50 ± 10	56 ± 3	6 ± 2	79 ± 4	10.2 ± 0.8	–
CCNC(=O)Nc1ccc(S(=O)(=O)Oc2cnccc2C)cc1.Cl [Compound 32, 4-Methylpyridin-3-yl 4-(3-ethylureido)benzenesulfonate hydrochloride]	98 ± 7	2.9 ± 0.1	26 ± 2	> 100	9.6 ± 0.7	2.4 ± 0.3	35 ± 4	5.9 ± 0.7	–
Cl.O=C(NCCCl)Nc1ccc(S(=O)(=O)Oc2cccnc2I)cc1 [Compound 28, 2-Iodopyridin-3-yl 4-(3-(2-chloroethyl)ureido)benzenesulfonate hydrochloride]	37 ± 2	1.8 ± 0.7	13 ± 1	19 ± 4	21 ± 1	2.4 ± 0.4	15 ± 1	3.1 ± 0.2	–
CCCNC(=O)Nc1ccc(S(=O)(=O)Oc2cccnc2C)cc1.Cl [Compound 26, 2-Methylpyridin-3-yl 4-(3-propylureido)benzenesulfonate hydrochloride]	151 ± 1	6 ± 2	33 ± 4	15 ± 3	> 100	14 ± 2	> 100	15 ± 2	–
